One data set addresses T1, dopamine D5 receptor (Homo sapiens, UniProt P21918).
T1 construct: expressed in transfected cells
Briefly: Dopamine D5 receptor competition binding ([3H]-SCH23390). The settings on record: HEK-293 membranes, [3H]-SCH23390 0.3 nM, mean (CI 95%), read-out: Affinity Ki D5. Here is the method:
(§1) The final compounds were tested for their affinity at serotonin 5-HT1A, 5-HT2A, and 5-HT7 receptors and at dopamine D1, D2, D3, and D5 receptors. As a first step, competition radioligand binding assays were carried out for all the compounds at the single concentration of 10 µM, on membrane preparations from stable cell lines heterologously expressing the human cloned 5-HT1A, 5-HT2A, or 5-HT7 receptors. […] For the affinity determination at dopamine receptor subtypes, membrane fractions of human dopamine D2s, D3, D1, and D5 receptor-expressing cells were used. They were co-incubated with [^3H]spiperone (for D2s and D3 receptor) or [^3H]SCH23390 (for D1 and D5 receptor) and appropriate concentrations of test compound for 120 min. Bound radioligand was separated from the free ligand using filtration. Radioactivity was measured by liquid scintillation counting.
(§2) The affinity for dopamine D1 and D5 receptors was evaluated in membrane fractions of HEK-293 cells stably expressing the human dopamine D1 or D5 receptor. HEK-293-D1 cells were cultured in DMEM/F12 (15 mM HEPES, 1.2 g/L NaHCO3) with 10% (v/v) FBS and 1% (v/v) L-glutamine. HEK-293-D5 cells were cultured in DMEM/F12 (with L-glutamine, 1.2 g/L NaHCO3) with 20% (v/v) FBS. Preparation of membrane fractions and radioligand competition assays were performed as previously described. Briefly, membrane fractions were co-incubated with [^3H]-SCH23390 (0.3 nM) and different concentrations of test compound for 120 min at room temperature. Fluphenazine (100 µM) was used to determine non-specific binding and as reference compound.
(§3) Data of at least three independent experiments in triplicate were analyzed using GraphPad Prism 8.1 (San Diego, CA, USA). Binding curves were fitted to a non-linear regression model (one-site competition). Ki values were calculated from IC50 values using the Cheng–Prusoff equation. The statistical calculations were performed on –log(Ki).

The target of data set [1] is T2, serotonin 5-HT7 receptor (5-HT7A) (Homo sapiens, UniProt P34969).
T2 construct: expressed in transfected cells
T2 sequence (P34969 1-445 isoform P34969-2): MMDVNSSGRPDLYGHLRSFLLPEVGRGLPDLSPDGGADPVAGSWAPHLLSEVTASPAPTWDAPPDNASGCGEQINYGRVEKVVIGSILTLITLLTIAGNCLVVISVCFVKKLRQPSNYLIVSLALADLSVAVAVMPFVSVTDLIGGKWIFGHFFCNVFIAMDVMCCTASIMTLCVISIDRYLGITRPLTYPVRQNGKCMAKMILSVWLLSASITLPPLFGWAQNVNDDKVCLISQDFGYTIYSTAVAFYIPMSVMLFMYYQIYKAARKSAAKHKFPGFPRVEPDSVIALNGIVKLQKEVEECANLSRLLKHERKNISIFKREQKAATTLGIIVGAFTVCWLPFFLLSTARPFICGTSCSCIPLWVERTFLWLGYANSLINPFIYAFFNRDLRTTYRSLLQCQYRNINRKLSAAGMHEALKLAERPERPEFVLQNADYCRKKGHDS
Put plainly: 5-HT7 receptor radioligand competition binding ([3H]-SB269970). As to conditions: human cloned 5-HT7A receptor, HEK293 membranes, 2 nM [3H]-SB269970; ± S.E.M., n = 3 in duplicate; read-out: Affinity Ki 5-HT7. Here is the method:
as §1, with “As” for “The final compounds were tested for their affinity at serotonin 5-HT1A, 5-HT2A, and 5-HT7 receptors and at dopamine D1, D2, D3, and D5 receptors. As”
The affinity of the compounds for serotonin 5-HT7 receptor was evaluated in membrane preparations from HEK293 cells stably expressing the human cloned 5-HT7A receptor, following previously described procedures with minor modifications. Competition binding experiments were performed using 2 nM [^3H]-SB269970 (34.5 Ci/mmol, 0.25 mCi/mL, Perkin Elmer NET1198U250UC) as radioligand. […] Methiothepine was included in the assays as reference compound. Assays were carried out in duplicate in 96-well assay plates, in assay buffer (50 mM Tris-HCl, 4 mM MgCl2, 1 mM ascorbic acid, 0.1 mM pargyline, pH = 7.4). Assay mixtures were incubated at 37 °C for 60 min, followed by filtration through GF/C glass filter plates, and washing with ice-cold assay buffer. Affinity (equilibrium dissociation constant, Ki) of the compounds was calculated from competition binding curves as indicated above.
(In general: Displacement assays read how much labelled ligand stays bound in the presence of the test substance.)

Data set [2] in a line: Cytotoxicity in SH-SY5Y cells (MTT assay). As to conditions: human, SH-SY5Y neuroblastoma cells, MTT, 0.1 to 100 μM, ± S.E.M. The class given is cell-based, human. Here is the method: Initially, the cytotoxicity of the target compounds was assessed by treating SH-SY5Y cells for 48 h with various concentrations of compounds (0.1 to 100 μM).
SH-SY5Y neuroblastoma cells (cat. CRL-2266, ATCC) were cultured in a 1:1 mixture of Eagle’s Minimum Essential Medium (cat. 15-010-CVR, Corning) and Ham’s F12 medium (cat. 10-080-CVR, Corning). This medium was supplemented with 10% (v/v) Fetal Bovine Serum (cat. 35-079-CV, Corning), 1% (v/v) Glutamine (cat. ECB3000D, Euro Clone) and 1% (v/v) Penicillin—Streptomycin (cat.30-002-CI, Corning). Cells were cultivated at 37 °C with 5% CO2 at saturated humidity.
Determination of cell growth was performed using the MTT assay at 48 h. On day 1, 25,000 cells/well were seeded into 96-well plates in a volume of 100 μL. On day 2, the various drug concentrations ([…]–100 μM) were added. In all the experiments, the various drug-solvents (EtOH, DMSO) were added in each control to evaluate possible solvent cytotoxicity. After the established incubation time with drugs (48 h), MTT (0.5 mg/mL) was added to each well, and after 3–4 h incubation at 37 °C, the supernatant was removed. The formazan crystals were solubilized using 100 μL of DMSO/EtOH (1:1, v/v) and the absorbance values at 570 and 630 nm were determined on the microplate reader Victor 3 (PerkinElmer Life Sciences, Waltham, MA, USA).
A general note: Formazan colour is commonly taken as a measure of viable cells.

The target in data set [3] is T3, serotonin 5-HT2A receptor (Homo sapiens, UniProt P28223).
T3 construct: expressed in transfected cells
T3 sequence (P28223 whole entry): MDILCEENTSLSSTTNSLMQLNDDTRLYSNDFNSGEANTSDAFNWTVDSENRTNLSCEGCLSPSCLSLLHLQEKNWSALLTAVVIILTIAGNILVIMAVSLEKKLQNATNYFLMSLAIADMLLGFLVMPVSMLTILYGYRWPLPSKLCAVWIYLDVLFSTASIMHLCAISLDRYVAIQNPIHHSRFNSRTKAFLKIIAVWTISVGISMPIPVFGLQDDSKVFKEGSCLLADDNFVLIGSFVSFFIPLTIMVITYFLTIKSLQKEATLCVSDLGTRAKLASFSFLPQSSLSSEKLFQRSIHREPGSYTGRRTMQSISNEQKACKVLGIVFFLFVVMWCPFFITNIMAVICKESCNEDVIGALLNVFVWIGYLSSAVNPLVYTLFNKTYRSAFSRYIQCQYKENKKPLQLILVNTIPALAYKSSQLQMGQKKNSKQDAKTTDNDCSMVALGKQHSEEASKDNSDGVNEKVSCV
Put plainly: 5-HT2A receptor radioligand competition binding ([3H]-ketanserin). As to conditions: human cloned receptor, CHO-K1 membranes, 1 nM [3H]-ketanserin; ± S.E.M., n = 3 in duplicate; read-out: Affinity Ki 5-HT2A.

A further data set addresses T4, dopamine D1 receptor (Homo sapiens, UniProt P21728).
T4 construct: expressed in transfected cells
Put plainly: Dopamine D1 receptor competition binding ([3H]-SCH23390). The settings on record: HEK-293 membranes, [3H]-SCH23390 0.3 nM, mean (CI 95%), read-out: Affinity Ki D1. As for the experimental part:
as §1, §2, §3

T1 sequence (P21918 whole entry): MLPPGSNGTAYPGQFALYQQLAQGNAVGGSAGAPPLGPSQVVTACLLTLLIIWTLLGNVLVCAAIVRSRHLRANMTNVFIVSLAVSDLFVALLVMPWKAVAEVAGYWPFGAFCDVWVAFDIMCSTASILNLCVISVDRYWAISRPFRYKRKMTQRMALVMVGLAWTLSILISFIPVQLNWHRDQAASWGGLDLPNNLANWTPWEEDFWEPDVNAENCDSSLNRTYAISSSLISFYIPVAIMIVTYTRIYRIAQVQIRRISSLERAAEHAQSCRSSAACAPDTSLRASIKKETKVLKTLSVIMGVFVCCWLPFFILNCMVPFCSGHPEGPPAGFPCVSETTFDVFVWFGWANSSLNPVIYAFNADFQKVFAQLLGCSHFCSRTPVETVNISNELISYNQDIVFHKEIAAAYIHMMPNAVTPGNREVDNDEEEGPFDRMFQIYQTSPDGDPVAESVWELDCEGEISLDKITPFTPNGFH
T4 sequence (P21728 whole entry): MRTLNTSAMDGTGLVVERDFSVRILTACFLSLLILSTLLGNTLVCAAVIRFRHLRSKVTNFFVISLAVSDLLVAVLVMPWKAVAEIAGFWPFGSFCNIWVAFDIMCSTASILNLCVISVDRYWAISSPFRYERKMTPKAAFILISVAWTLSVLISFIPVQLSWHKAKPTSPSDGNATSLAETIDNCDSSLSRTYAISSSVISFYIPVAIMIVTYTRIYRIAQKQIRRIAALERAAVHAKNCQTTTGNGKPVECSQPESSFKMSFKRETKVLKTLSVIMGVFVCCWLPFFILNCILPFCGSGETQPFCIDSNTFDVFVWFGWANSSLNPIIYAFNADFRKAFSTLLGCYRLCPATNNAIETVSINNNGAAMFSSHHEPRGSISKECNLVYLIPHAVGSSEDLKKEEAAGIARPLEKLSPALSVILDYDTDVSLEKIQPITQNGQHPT

By Ki is commonly meant a dissociation constant, usually derived from enzyme kinetics or from competition with a known ligand. Usually EC50 stands for the concentration needed to bring the measured effect to its halfway point. Low readings indicate a more potent agent, high ones a less potent agent. For `Cn1c(=O)cnn(CCCCN2CCN(c3ncccc3-c3ccncc3)CC2)c1=O` [Compound 11b, 2-(4-(4-([3,4’-Bipyridin]-2-yl)piperazin-1-yl)butyl)-4-methyl-1,2,4-triazine-3,5(2H,4H)-dione], the Ki at dopamine D5 receptor is > 10000 nM; in data set [1], 79.4 ± 9 nM; in data set [3] it was > 10000 nM; at dopamine D1 receptor it was > 10000 nM. For the same molecule, in data set [2], the EC50 at 48 h is > 100000 nM.
Consider `Cc1cc(=O)oc2cc(OCCCN3CCN(c4ncccc4-c4ccncc4)CC3)ccc12` [Compound 12a, 7-(3-(4-([3,4’-Bipyridin]-2-yl)piperazin-1-yl)propoxy)-4-methyl-2H-chromen-2-one], for which the Ki on dopamine D5 receptor was > 10000 nM; in data set [1], 42.5 ± 6.2 nM; in data set [3] it was 315 ± 44 nM; on dopamine D1 receptor, 2200 nM. The molecule further displayed a 50% effective concentration (EC50) at 48 h in data set [2] of 35200 ± 4100 nM.
Regarding `Cn1c(=O)cnn(CCCCN2CCN(c3ccc(F)cc3-c3ccc(C#N)cc3)CC2)c1=O` [Compound 10b, 5’-Fluoro-2’-(4-(4-(4-methyl-3,5-dioxo-4,5-dihydro-1,2,4-triazin-2(3H)-yl)butyl)piperazin-1-yl)-[1,1’-biphenyl]-4-carbonitrile], the Ki was found to be 101 nM at dopamine D5 receptor, 36.5 ± 5.2 nM in data set [1], 80.7 ± 3.1 nM in data set [3] and 140 nM at dopamine D1 receptor. Also, in data set [2], the EC50 at 48 h was determined as 34300 ± 2500 nM.
For the molecule `Cc1cc(=O)oc2cc(OCCCCN3CCN(c4ncccc4-c4ccncc4)CC3)ccc12` [Compound 12b, 7-(4-(4-([3,4’-Bipyridin]-2-yl)piperazin-1-yl)butoxy)-4-methyl-2H-chromen-2-one], the Ki at dopamine D5 receptor is 2730 nM; in data set [1] it was 52.2 ± 10.6 nM; in data set [3] it was ~1420 nM; at dopamine D1 receptor, 1530 nM. The 50% effective concentration (EC50) at 48 h in data set [2] was 47900 ± 3500 nM.
In the case of `Cn1c(=O)cnn(CCCN2CCN(c3ccc(F)cc3-c3ccc(C#N)cc3)CC2)c1=O` [Compound 10a, 5’-Fluoro-2’-(4-(3-(4-methyl-3,5-dioxo-4,5-dihydro-1,2,4-triazin-2(3H)-yl)propyl)piperazin-1-yl)-[1,1’-biphenyl]-4-carbonitrile], the inhibitory constant (Ki) on dopamine D5 receptor was determined as 180 nM; in data set [1] it was 45.7 ± 1.3 nM; in data set [3] it was 96.8 ± 11 nM; at dopamine D1 receptor, 104 nM. The same molecule showed a concentration giving a half-maximal response (EC50) at 48 h in data set [2] of 28200 ± 3200 nM.
For `CC1Oc2ccc(OCCCCN3CCN(c4ncccc4-c4ccncc4)CC3)cc2NC1=O` (stereo not drawn) [Compound 8b, 6-(4-(4-([3,4’-Bipyridin]-2-yl)piperazin-1-yl)butoxy)-2-methyl-2H-benzo[b][1,4]oxazin-3(4H)-one], in that order: 8200 nM, 9.38 ± 0.42 nM, 611 ± 87 nM, 1710 nM and 25500 ± 2200 nM.
As for `COc1ccc(-c2cc(F)ccc2N2CCN(CCCCn3ncc(=O)n(C)c3=O)CC2)cc1` [Compound 9b, 2-(4-(4-(5-Fluoro-4’-methoxy-[1,1’-biphenyl]-2-yl)piperazin-1-yl)butyl)-4-methyl-1,2,4-triazine-3,5(2H,4H)-dione], the Ki at dopamine D5 receptor is 222 nM; in data set [1], 45 ± 3.4 nM; in data set [3] it was 39.4 ± 7.4 nM; at dopamine D1 receptor, 88.3 nM. The molecule further registered an EC50 at 48 h in data set [2] of 51900 ± 4300 nM.
As for `Cn1c(=O)cnn(CCCN2CCN(c3ncccc3-c3ccncc3)CC2)c1=O` [Compound 11a, 2-(3-(4-([3,4’-Bipyridin]-2-yl)piperazin-1-yl)propyl)-4-methyl-1,2,4-triazine-3,5(2H,4H)-dione], the inhibition constant Ki at dopamine D5 receptor was > 10000 nM; in data set [1], 44.5 ± 2.2 nM; in data set [3] it was > 10000 nM; on dopamine D1 receptor, > 10000 nM. In addition, the EC50 at 48 h in data set [2] was > 100000 nM.
On to `CC1Oc2ccc(OCCCN3CCN(c4ncccc4-c4ccncc4)CC3)cc2NC1=O` (stereo not drawn) [Compound 8a, 6-(3-(4-([3,4’-Bipyridin]-2-yl)piperazin-1-yl)propoxy)-2-methyl-2H-benzo[b][1,4]oxazin-3(4H)-one], for which the Ki on dopamine D5 receptor stood at 7410 nM; in data set [1] it was 10.7 ± 0.7 nM; in data set [3], 782 ± 119 nM; at dopamine D1 receptor, 6290 nM. Besides, it took 32900 ± 3500 nM to reach a half-maximal effect in data set [2] (EC50 at 48 h).

For the origin of these results see paper PMC8877291, “Design and Synthesis of Arylpiperazine Serotonergic/Dopaminergic Ligands with Neuroprotective Properties” (Molecules, 2022).
